Experimental data as given in patent US11028087B2, “2,6-disubstituted-9-cyclopentyl-9H-purines, use thereof as medicaments, and pharmaceutical compositions” (UNIVERZITA PALACKEHO V OLOMOUCI, priority 2017, dated 2021).

What was measured:
FLT3 WT = target: T1, FLT3 WT (Homo sapiens, UniProt P36888); assay: Kinase inhibition assay with [γ-33P]ATP; assay type: biochemical; conditions: AGLT substrate, 1 μM ATP
T1 construct: purchased ProQinase GmbH
T1 sequence (P36888 27-993): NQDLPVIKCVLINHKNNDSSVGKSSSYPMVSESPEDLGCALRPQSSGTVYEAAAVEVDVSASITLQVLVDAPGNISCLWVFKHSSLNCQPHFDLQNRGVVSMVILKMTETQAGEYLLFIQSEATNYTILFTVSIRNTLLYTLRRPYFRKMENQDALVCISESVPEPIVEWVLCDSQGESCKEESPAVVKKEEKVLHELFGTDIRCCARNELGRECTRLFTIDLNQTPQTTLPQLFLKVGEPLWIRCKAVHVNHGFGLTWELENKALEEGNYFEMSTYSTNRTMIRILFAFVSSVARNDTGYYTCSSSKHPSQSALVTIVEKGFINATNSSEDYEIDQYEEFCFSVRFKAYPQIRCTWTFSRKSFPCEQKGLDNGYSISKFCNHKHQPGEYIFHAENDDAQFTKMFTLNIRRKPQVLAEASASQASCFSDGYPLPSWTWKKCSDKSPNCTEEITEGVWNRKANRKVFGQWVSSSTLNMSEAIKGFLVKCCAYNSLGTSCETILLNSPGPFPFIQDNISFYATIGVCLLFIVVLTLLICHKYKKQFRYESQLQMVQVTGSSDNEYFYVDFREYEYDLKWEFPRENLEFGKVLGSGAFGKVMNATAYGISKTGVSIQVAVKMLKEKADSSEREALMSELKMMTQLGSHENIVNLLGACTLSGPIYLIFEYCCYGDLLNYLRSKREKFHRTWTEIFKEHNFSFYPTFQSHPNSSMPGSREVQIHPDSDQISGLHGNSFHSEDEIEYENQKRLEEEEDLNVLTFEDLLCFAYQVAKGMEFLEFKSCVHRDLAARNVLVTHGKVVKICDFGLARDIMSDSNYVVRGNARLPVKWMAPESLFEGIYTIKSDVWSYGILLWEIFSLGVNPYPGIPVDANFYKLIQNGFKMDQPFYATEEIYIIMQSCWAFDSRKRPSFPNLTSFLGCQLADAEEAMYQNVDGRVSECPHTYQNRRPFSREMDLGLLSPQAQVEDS
Protocol: (§1) CDK1/Cyclin B and CDK2/Cyclin E kinases were produced in Sf9 insect cells via baculoviral infection and purified on a NiNTA column (Qiagen). CDK5/p35 and CDK7Cyclin H/MAT1, FLT3 WT, FLT3-ITD and FLT3 D835 were purchased from ProQinase GmbH. The kinase reactions were assayed with 1 mg/mL histone H1 (for CDK1, CDK2 and CDK5), (YSPTSPS)2KK peptide (for CDK7) or AGLT substrate (for FLT3) in the presence of 15/15/0.15/1.5/1 μM ATP (for CDK1/CDK2/CDK5/CDK7/FLT3), 0.05 μCi [γ-^33P]ATP and of the test compound in a final volume of 10 μL, all in a reaction buffer (60 mM HEPES-NaOH, pH 7.5, 3 mM MgCl2, 3 mM MnCl2, 3 μM Na-orthovanadate, 1.2 mM DTT, 2.5 μg/50 μl PEG20,000). The reactions were stopped by adding 5 μL of 3% aq H3PO4. Aliquots were spotted onto P-81 phosphocellulose (Whatman), washed 3× with 0.5% aq H3PO4 and finally air-dried.

CDK2/Cyclin E = target: T2, CDK2/Cyclin E (Homo sapiens, UniProt P24941); assay: Kinase inhibition assay with [γ-33P]ATP; assay type: biochemical; conditions: histone H1, 15 μM ATP; read-out: IC50 values (μM) CDK2
T2 construct: made in house; host or cells: Sf9 insect cells, baculoviral infection
Protocol: as §1

[1] = tested on: MV4-11 (acute myeloid leukemia, FLT3-ITD positive); assay: Calcein AM cytotoxicity assay; assay type: cell-based; conditions: Homo sapiens, 72 h; MV4-11; Calcein AM, three days after drug addition; read-out: EC50 values (μM) MV4-11
From the text: (§2) Cytotoxicity of the compounds is the major property determining their anticancer effect in vivo. One of the parameters used, as the basis for cytotoxicity assays, is the integrity of cytoplasmic membrane of viable cells. For example, a microtiter assay, which uses acetomethoxy derivate of calcein (Calcein AM), is widely used for evaluation of cell proliferation and cytotoxicity. This assay is used in drug screening programs and in chemosensitivity testing. Intracellular esterases of viable cells convert calcein AM to green-fluorescent calcein of which signal corresponds to the number of viable cells in the culture.
(§3) We have been using the following cell lines: MV4-11 (acute myeloid leukemia, FLT3-ITD positive), MOLM-13 (acute myeloid leukemia, FLT3-ITD positive), THP-1 (acute myeloid leukemia, wt FLT3), U937 (monocytic leukemia, wt FLT3), EOL-1 (eosinophilic leukaemia, carrying the fusion FIP1L1-PDGFRA), H1703 (non-small cell lung carcinoma, PDGFRA amplification). […] K562 and MCF-7 cell lines were maintained in DMEM supplemented with 10% fetal bovine serum, penicilin (100 U/ml) and streptomycin (100 μg/ml). All cell lines were cultivated at 37° C. in 5% CO2. For cytotoxicity assays, cells were seeded in appropriate densities into 96 well plates and the next day tested compounds were added at various concentrations in triplicates. Three days after drug addition, Calcein AM solution (final concentration 1 μg/ml; Thermo Scientific, USA) was added into each well and incubated for 1 h.

K562 = assay: Calcein AM cytotoxicity assay; assay type: cell-based; conditions: Homo sapiens, 72 h; K562; Calcein AM, three days; read-out: EC50 values (μM) K562
From the text: as §2, §3

MCF-7 = assay: Calcein AM cytotoxicity assay; assay type: cell-based; conditions: Homo sapiens, MCF7, 72 h; MCF-7; Calcein AM, three days; read-out: EC50 values (μM) MCF-7
From the text: as §2, §3

[2] = tested on: Kasumi-1 (acute myeloid leukemia, KIT mutation Asn822Lys); assay: Calcein AM cytotoxicity assay; assay type: cell-based; conditions: Homo sapiens, 72 h; Kasumi-1; Calcein AM, three days; read-out: EC50 values (μM) Kasumi-1
From the text: as §2
We have been using the following cell lines: MV4-11 (acute myeloid leukemia, FLT3-ITD positive), MOLM-13 (acute myeloid leukemia, FLT3-ITD positive), THP-1 (acute myeloid leukemia, wt FLT3), U937 (monocytic leukemia, wt FLT3), EOL-1 (eosinophilic leukaemia, carrying the fusion FIP1L1-PDGFRA), H1703 (non-small cell lung carcinoma, PDGFRA amplification). They were maintained in RPMI-1640 supplemented with 10% fetal bovine serum, penicillin (100 U/ml) and streptomycin (100 μg/ml). Kasumi-1 (acute myeloid leukemia, KIT mutation Asn822Lys) cells were cultivated in RPMI-1640 supplemented with 15% fetal bovine serum, penicillin (100 U/ml) and streptomycin (100 μg/ml). K562 and MCF-7 cell lines were maintained in DMEM supplemented with 10% fetal bovine serum, penicilin (100 U/ml) and streptomycin (100 μg/ml). All cell lines were cultivated at 37° C. in 5% CO2. For cytotoxicity assays, cells were seeded in appropriate densities into 96 well plates and the next day tested compounds were added at various concentrations in triplicates. Three days after drug addition, Calcein AM solution (final concentration 1 μg/ml; Thermo Scientific, USA) was added into each well and incubated for 1 h. After this incubation period, fluorescence of the live cells was measured at 485 nm/538 nm (ex/em) with a Fluoroskan Ascent microplate reader (Labsystems).

[3] = tested on: MOLM-13 (acute myeloid leukemia, FLT3-ITD positive); assay: Calcein AM cytotoxicity assay; assay type: cell-based; conditions: Homo sapiens, 72 h; MOLM-13; Calcein AM, three days; read-out: EC50 values (μM) MOLM-13
From the text: as §2, §3

[4] = tested on: U937 (monocytic leukemia, wt FLT3); assay: Calcein AM cytotoxicity assay; assay type: cell-based; conditions: Homo sapiens, U-937, 72 h; U937; Calcein AM, three days; read-out: EC50 values (μM) U937
From the text: as §2, §3

[5] = tested on: EOL-1 (eosinophilic leukaemia, carrying the fusion FIP1L1-PDGFRA); assay: Calcein AM cytotoxicity assay; assay type: cell-based; conditions: Homo sapiens, EOL1, 72 h; EOL-1; Calcein AM, three days; read-out: EC50 values (μM) EOL-1
From the text: as §2, §3

[6] = tested on: THP-1 (acute myeloid leukemia, wt FLT3); assay: Calcein AM cytotoxicity assay; assay type: cell-based; conditions: Homo sapiens, 72 h; THP-1; Calcein AM, three days; read-out: EC50 values (μM) THP-1
From the text: as §2, §3

Molecule `CCN1CCN(C(=O)c2ccc(Nc3nc(N4CCN(C)CC4)nc4c3ncn4C3CCCC3)cn2)CC1` [Compound 60] has an IC50 (FLT3 WT) of 0.021 µM and an IC50 (CDK2/Cyclin E) of 0.028 µM.
Molecule `NC(=O)CCNc1nc(Nc2ccc(C(=O)N3CCOCC3)nc2)c2ncn(C3CCCC3)c2n1` [Compound 149] has an EC50 [1] of 0.007 µM, an EC50 (K562) of 1.17 µM and an EC50 (MCF-7) of 0.688 µM. It also gave an EC50 [2] of 1.01 µM.
With `CN(C)CCCCNc1nc(Nc2ccc(C(=O)N3CCN(C)CC3)nc2)c2ncn(C3CCCC3)c2n1` [Compound 185] the IC50 (FLT3 WT) was 0.02 µM and the IC50 (CDK2/Cyclin E) was 0.003 µM.
Work on `CN(C)CCCCNc1nc(Nc2ccc(C(=O)N3CCOCC3)cc2)c2ncn(C3CCCC3)c2n1` [Compound 182] yielded an EC50 [1] of 0.002 µM, an EC50 [3] of 0.017 µM and an EC50 (K562) of 4.21 µM. For the same molecule, the EC50 [4] was 0.631 µM, the EC50 (MCF-7) was 1.59 µM and the EC50 [5] was 0.04 µM. It also gave an EC50 [6] of 1.5 µM, an IC50 (FLT3 WT) of 0.013 µM and an IC50 (CDK2/Cyclin E) of 0.005 µM. The EC50 [2] was 1.68 µM.
For `c1cc(Nc2nc(N3CCCCC3)nc3c2ncn3C2CCCC2)ccc1CN1CCOCC1` [Compound 271], the EC50 [1] was 0.701 µM, the EC50 [3] was 0.431 µM and the EC50 (K562) was 8.28 µM. For the same molecule, the EC50 [4] was 7.62 µM, the EC50 (MCF-7) was 12.3 µM and the EC50 [5] was 1.37 µM. For the same molecule, the EC50 [6] was over 10 µM, the IC50 (FLT3 WT) was 0.073 µM and the IC50 (CDK2/Cyclin E) was 1.98 µM. For the same molecule, the EC50 [2] was 2.16 µM.
Work on `c1cc(N2CCOCC2)ncc1Nc1nc(N2CCOCC2)nc2c1ncn2C1CCCC1` [Compound 46] yielded an EC50 [1] of 0.02 µM, an EC50 [5] of 0.377 µM and an IC50 (CDK2/Cyclin E) of 0.951 µM.
For `NC(=O)CCCCNc1nc(Nc2ccc(N3CC4(CNC4)C3)cc2)c2ncn(C3CCCC3)c2n1` [Compound 156], the EC50 [1] was 0.001 µM, the EC50 (K562) was 0.84 µM and the EC50 (MCF-7) was 0.697 µM. The IC50 (CDK2/Cyclin E) was 0.006 µM.
Molecule `NC1CCC(Nc2nc(Nc3ccc(N4CCOCC4)nc3)c3ncn(C4CCCC4)c3n2)CC1` (stereo not shown) [Compound 269] has an EC50 [1] of 0.004 µM, an EC50 (K562) of 1.35 µM and an EC50 [4] of 1.49 µM. The EC50 (MCF-7) was 0.96 µM, the EC50 [5] was 0.01 µM and the IC50 (CDK2/Cyclin E) was 0.008 µM.
`CN(C)CCCCNc1nc(Nc2ccc(N3CCOCC3)nc2)c2ncn(C3CCCC3)c2n1` [Compound 183] showed an EC50 [1] of 0.0005 µM, an EC50 [3] of 0.005 µM and an EC50 (K562) of 0.98 µM. The EC50 [4] was 0.4 µM, the EC50 (MCF-7) was 0.665 µM and the EC50 [5] was 0.014 µM. The EC50 [6] was 0.36 µM and the EC50 [2] was 0.183 µM.
`CCN1CCN(C(=O)c2ccc(Nc3nc(NCCCC(N)=O)nc4c3ncn4C3CCCC3)cn2)CC1` [Compound 155] showed an EC50 [1] of 0.164 µM, an EC50 (K562) of 5.17 µM and an EC50 (MCF-7) of 4.71 µM. It also gave an IC50 (CDK2/Cyclin E) of 2.6 µM.
For `CN(C)CCCNc1nc(Nc2ccc(N3CCN(C)CC3)cc2)c2ncn(C3CCCC3)c2n1` [Compound 174], the IC50 (CDK2/Cyclin E) was 16.4 µM.
In the case of `OCCNc1nc(Nc2ccc(CN3CCOCC3)cc2)c2ncn(C3CCCC3)c2n1` [Compound 274], the EC50 [1] is reported as 0.074 µM, the EC50 [5] is reported as 0.503 µM and the IC50 (CDK2/Cyclin E) is reported as 1.17 µM.
`OCCCCNc1nc(Nc2ccc(CN3CCOCC3)cc2)c2ncn(C3CCCC3)c2n1` [Compound 276] was tested, and the EC50 [1] was 0.029 µM and the IC50 (CDK2/Cyclin E) was 1.8 µM.
For `CN1CC2(C1)CN(Cc1ccc(Nc3nc(NCC(O)CN)nc4c3ncn4C3CCCC3)cc1)C2` (stereo not shown) [Compound 199], the EC50 [1] was 0.011 µM, the EC50 [3] was 0.043 µM and the EC50 (K562) was 1.36 µM. The EC50 [4] was 1 µM, the EC50 (MCF-7) was 0.67 µM and the EC50 [6] was 0.925 µM. For the same molecule, the IC50 (FLT3 WT) was 0.013 µM, the IC50 (CDK2/Cyclin E) was 0.005 µM and the EC50 [2] was 0.227 µM.
With `CN1CCN(c2nc(Nc3ccc(N4CCNCC4)nc3)c3ncn(C4CCCC4)c3n2)CC1` [Compound 58] the EC50 [1] was 0.017 µM, the EC50 [3] was 0.017 µM and the EC50 (K562) was 0.695 µM. For the same molecule, the EC50 [4] was 0.794 µM, the EC50 (MCF-7) was 0.44 µM and the EC50 [5] was 0.056 µM. It also gave an EC50 [6] of 1.13 µM and an EC50 [2] of 0.492 µM.
Molecule `OCCCNc1nc(Nc2ccc(CN3CCOCC3)cc2)c2ncn(C3CCCC3)c2n1` [Compound 275] has an EC50 [1] of 0.066 µM, an EC50 [5] of 0.73 µM and an IC50 (CDK2/Cyclin E) of 3.01 µM.
